ChEMBL document CHEMBL1152048, “N-(1-phenyl-2-benzimidazolyl)-N-phenylurea derivatives as potent in hibitors of acylcoa:cholesterol acyltransferase (ACAT)” (Bioorg Med Chem Lett, 1995)

What was measured:
[1] = molecular target: T1, Acyl-CoA:cholesterol acyltransferase (Oryctolagus cuniculus, UniProt Q95214); experiment: In vitro inhibitory activity towards acyl CoA cholesterol acyltransferase (ACAT) of cholesterol-fed rabbits by the displacement of [14C]oleolyl-CoA
T1 sequence (Q95214 whole entry): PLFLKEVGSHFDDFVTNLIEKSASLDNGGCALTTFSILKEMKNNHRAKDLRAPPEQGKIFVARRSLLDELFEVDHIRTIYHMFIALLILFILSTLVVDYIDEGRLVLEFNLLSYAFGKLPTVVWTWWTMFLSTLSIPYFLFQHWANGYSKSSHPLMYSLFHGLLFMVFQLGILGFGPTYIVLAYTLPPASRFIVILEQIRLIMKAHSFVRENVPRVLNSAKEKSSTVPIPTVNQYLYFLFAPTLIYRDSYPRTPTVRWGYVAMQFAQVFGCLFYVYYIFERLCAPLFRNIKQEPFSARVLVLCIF

[2] = molecular target: T2, Acyl-CoA:cholesterol acyltransferase (Oryctolagus cuniculus) (UniProt Q95214); experiment: In vitro inhibitory activity towards acyl CoA cholesterol acyltransferase (ACAT) of cholesterol-fed rabbits by the displacement of [14C]oleolyl-CoA at 1 uM
T2 sequence (whole entry): T1 sequence (Q95214 whole entry)

[3] = test system: Cricetinae gen. sp.; experiment: Compound was tested in vivo at a dose of 10 (mg/kg) for percent inhibition in increased serum total cholesterol in golden hamsters fed with a diet containing 2% cholesterol; assay type: functional, Mesocricetus auratus

SMILES	IC50 [1]	inhibition [2]	Reduction [3]
CC(C)c1cccc(C(C)C)c1NC(=O)Nc1nc2ccccc2n1-c1ccccc1C(F)(F)F	72 nM		
Cc1ccccc1-n1c(NC(=O)Nc2c(C(C)C)cccc2C(C)C)nc2ccccc21	19 nM		
CC(C)c1cccc(C(C)C)c1NC(=O)Nc1nc2ccccc2n1-c1ccccc1Br	22 nM		37%
CC(C)c1cccc(C(C)C)c1NC(=O)Nc1nc2ccccc2n1-c1c(Cl)cccc1Cl	11 nM		74%
Cc1cccc(C)c1NC(=O)Nc1nc2ccccc2n1-c1ccccc1Cl	420 nM		
CC(C)c1cccc(C(C)C)c1NC(=O)Nc1nc2ccccc2n1-c1cccc(Cl)c1	20 nM		
COc1ccccc1-n1c(NC(=O)Nc2c(C(C)C)cccc2C(C)C)nc2ccccc21	20 nM		
CC(C)c1cccc(C(C)C)c1NC(=O)Nc1nc2ccccc2n1-c1cc(C(=O)O)ccc1Cl		2%	

Continued, in another order:

IC50 [1]	inhibition [2]	SMILES	Reduction [3]
	27%	O=C(Nc1ccc(F)cc1F)Nc1nc2ccccc2n1-c1ccccc1Cl	
66 nM		CC(C)c1cccc(C(C)C)c1NC(=O)Nc1nc2ccccc2n1-c1ccccc1	
	24%	Cc1cc(C)c(NC(=O)Nc2nc3ccccc3n2-c2c(Cl)cccc2Cl)c(C)c1	
100 nM		Cc1ncccc1-n1c(NC(=O)Nc2c(C(C)C)cccc2C(C)C)nc2ccccc21	
100 nM		CC(C)c1cccc(C(C)C)c1NC(=O)Nc1nc2ccccc2n1-c1ncccc1Cl	
200 nM		CC(C)c1cccc(C(C)C)c1NC(=O)Nc1nc2ccccc2n1-c1ccccc1O	
280 nM		CC(C)c1cccc(C(C)C)c1NC(=O)Nc1nc2ccccc2n1-c1ccc(Cl)cc1	
18 nM		CC(C)c1cccc(C(C)C)c1NC(=O)Nc1nc2ccccc2n1-c1ccccc1Cl	80%
33 nM		CC(C)c1cccc(C(C)C)c1NC(=O)Nc1nc2cccnc2n1-c1ccccc1Cl	76%
41 nM		CC(C)c1cccc(C(C)C)c1NC(=O)Nc1nc2ccccc2n1-c1ccccc1N(C)C	102%
